Laboratory results taken from USRE39616E1, “Aminoindan derivatives” (priority 1996, dated 2007).
Where two headings read alike, the source gives them in different places.

What was measured:
MAO-B [1] = target: T1, MAO-B (Rattus norvegicus, UniProt P19643); test: Inhibition of MAO activity in vitro, PEA as substrate; assay type: biochemical; parameters: The MAO enzyme source was a homogenate of rat brain in 0.3M sucrose; from tissue; host or cells: rat brain homogenate, 600 g supernatant
T1 sequence (P19643 1-520): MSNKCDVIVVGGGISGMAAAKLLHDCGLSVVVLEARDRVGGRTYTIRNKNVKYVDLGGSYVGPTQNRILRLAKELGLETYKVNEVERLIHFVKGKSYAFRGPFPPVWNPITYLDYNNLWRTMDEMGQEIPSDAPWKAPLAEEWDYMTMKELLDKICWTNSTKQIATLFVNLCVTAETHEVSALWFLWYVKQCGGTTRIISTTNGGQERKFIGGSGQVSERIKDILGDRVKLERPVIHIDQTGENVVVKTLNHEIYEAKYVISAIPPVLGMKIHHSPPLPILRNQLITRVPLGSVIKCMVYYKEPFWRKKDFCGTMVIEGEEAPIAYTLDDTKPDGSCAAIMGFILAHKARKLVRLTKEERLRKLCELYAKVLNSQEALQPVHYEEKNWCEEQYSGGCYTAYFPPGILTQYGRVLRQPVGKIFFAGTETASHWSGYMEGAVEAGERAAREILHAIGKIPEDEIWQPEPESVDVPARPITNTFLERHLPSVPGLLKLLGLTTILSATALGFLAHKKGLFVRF
Procedure: (§1) Substrate concentrations used were 50 μM (PEA) and 1 mM (5-HT).

MAO-A [2] = target: T2, MAO-A (Rattus norvegicus, UniProt P21396); test: Inhibition of MAO activity in vitro, 5-HT as substrate; assay type: biochemical; parameters: The MAO enzyme source was a homogenate of rat brain in 0.3M sucrose; from tissue; host or cells: rat brain homogenate, 600 g supernatant; conditions: 5-HT substrate
T2 sequence (P21396 1-526): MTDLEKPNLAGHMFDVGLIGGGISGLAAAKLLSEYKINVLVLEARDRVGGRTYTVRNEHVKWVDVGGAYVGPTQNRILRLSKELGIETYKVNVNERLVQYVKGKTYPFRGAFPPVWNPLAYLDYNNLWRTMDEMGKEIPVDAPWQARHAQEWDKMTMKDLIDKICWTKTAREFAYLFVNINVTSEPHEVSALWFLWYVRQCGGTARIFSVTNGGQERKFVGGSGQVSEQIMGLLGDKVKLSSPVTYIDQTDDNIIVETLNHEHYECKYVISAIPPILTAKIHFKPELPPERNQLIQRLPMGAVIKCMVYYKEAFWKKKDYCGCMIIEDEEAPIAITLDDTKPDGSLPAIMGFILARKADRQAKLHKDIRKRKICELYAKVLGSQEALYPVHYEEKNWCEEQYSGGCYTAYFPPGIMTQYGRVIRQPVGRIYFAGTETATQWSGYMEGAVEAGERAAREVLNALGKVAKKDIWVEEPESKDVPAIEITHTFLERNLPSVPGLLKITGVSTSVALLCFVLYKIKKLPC
Procedure: as §1

whole brain AChE = target: T3, whole brain AChE (Mus musculus, UniProt P21836); conditions: for AChE Inhibition Ex vivo ED50 (AC): mice, whole brain, at peak of activity; for AChE Inhibition Time to peak activity t / AChE Inhibition Time to return to 50% of peak t: mouse, in vivo
T3 sequence (P21836 32-614): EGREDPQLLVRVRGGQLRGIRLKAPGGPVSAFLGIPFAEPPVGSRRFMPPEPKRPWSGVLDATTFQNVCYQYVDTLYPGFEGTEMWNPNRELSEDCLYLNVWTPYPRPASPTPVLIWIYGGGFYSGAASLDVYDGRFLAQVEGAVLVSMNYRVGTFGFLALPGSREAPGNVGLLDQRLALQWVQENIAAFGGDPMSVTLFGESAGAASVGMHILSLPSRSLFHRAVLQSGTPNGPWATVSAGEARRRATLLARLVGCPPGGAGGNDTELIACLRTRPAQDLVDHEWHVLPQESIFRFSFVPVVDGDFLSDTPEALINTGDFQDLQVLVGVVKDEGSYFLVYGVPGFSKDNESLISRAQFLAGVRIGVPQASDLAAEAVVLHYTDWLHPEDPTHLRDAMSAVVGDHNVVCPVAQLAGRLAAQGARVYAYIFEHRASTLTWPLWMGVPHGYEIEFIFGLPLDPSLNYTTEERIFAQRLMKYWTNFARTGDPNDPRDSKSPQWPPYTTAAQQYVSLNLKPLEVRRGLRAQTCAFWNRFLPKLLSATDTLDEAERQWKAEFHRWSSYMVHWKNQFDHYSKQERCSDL
Procedure: Test drugs or saline were administered sub-cutaneously to male mice (Sabra strain, 28-35 g). […] The mice were sacrificed 15, 30, 50, 70, 90, 120 or 180 minutes after drug administration, the brains rapidly removed (minus cerebellum), weighed and homogenized in 0.1 M phosphate buffer, pH 8.0, containing Triton (1 mg/100 g tissue) and centrifuged to remove cell debris. Aliquots (25 μl) of the supernatant were then incubated with acetylthiocholine and DTNB. AChE activity was measured as described above. The % inhibition of whole brain AChE by each dose of drug was calculated by comparison with enzyme activity from 3 saline treated control mice run at the same time.

MAO-B [3] = target: T4, MAO-B (Mus musculus, UniProt Q8BW75); test: Inhibition of MAO activity ex vivo (brain); assay type: in vivo, mice; conditions: mice, brain tissue
T4 construct: from tissue; host or cells: mouse brain
T4 sequence (Q8BW75 1-520): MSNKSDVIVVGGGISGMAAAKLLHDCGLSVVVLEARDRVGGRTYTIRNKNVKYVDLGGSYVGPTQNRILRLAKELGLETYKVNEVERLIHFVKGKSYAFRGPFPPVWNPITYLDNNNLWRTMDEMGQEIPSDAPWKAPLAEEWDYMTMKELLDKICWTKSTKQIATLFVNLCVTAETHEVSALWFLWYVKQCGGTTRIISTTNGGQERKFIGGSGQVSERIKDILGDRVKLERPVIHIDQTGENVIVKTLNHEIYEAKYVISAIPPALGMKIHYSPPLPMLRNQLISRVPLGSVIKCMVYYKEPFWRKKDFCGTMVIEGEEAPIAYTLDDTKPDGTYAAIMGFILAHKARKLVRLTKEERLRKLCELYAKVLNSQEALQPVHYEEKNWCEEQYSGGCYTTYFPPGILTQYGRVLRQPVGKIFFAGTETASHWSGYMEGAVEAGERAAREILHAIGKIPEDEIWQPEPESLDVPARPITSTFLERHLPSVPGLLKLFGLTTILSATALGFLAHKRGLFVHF
Procedure: as §1
(§2) Male Sabra mice, weighing 45-50 g were injected with test compound solutions (prepared in 0.9% saline). Each dose was administered to two or three mice. The mice were sacrificed two hours after drug administration or at a time corresponding to the peak AChE inhibition time (see Table 11). The brain and liver were rapidly dissected and stored in appropriate vials on ice. The tissues were weighed, diluted to ½ in sucrose 0.3M and stored at −20° C. before performance of the MAO assay described above. The results given in Table 11 relate to measurements made on brain tissue only.

MAO-A [4] = target: T5, MAO-A (Mus musculus, UniProt Q64133); test: Inhibition of MAO activity ex vivo (brain); assay type: in vivo, mice; conditions: mice, brain tissue
T5 construct: from tissue; host or cells: mouse brain
T5 sequence (Q64133 1-526): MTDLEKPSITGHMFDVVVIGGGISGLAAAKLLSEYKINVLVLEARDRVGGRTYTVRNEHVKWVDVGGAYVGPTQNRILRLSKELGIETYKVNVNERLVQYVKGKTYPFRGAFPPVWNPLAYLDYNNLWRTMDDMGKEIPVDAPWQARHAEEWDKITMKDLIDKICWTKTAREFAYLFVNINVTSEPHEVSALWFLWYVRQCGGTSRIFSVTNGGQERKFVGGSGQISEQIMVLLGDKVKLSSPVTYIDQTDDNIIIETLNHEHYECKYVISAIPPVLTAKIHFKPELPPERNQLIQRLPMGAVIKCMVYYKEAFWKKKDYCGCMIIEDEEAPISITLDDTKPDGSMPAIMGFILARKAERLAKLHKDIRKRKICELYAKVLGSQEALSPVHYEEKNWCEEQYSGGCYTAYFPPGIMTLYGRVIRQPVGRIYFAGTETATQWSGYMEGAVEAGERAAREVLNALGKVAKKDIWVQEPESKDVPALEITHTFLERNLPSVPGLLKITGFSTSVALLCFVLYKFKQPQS
Procedure: as §1, §2

[5] = target: T6, Human erythrocyte acetylcholinesterase (Homo sapiens, UniProt P22303); test: biochemical; assay type: biochemical
T6 construct: Human erythrocyte acetylcholinesterase (type XIII, Sigma Israel); purchased Sigma Israel type XIII; host or cells: human erythrocytes
Procedure: Human erythrocyte acetylcholinesterase (type XIII, Sigma Israel), was prepared in a stock solution of 1 U/ml, containing Triton (1%) and bovine serum albumin (0.05%) in phosphate buffer (pH 8). The enzyme (0.05U) was incubated with 3-5 different concentrations of test compound (in triplicate) for periods of from 15 to 60 minutes at 37° C. […] The percentage inhibition of AChE by each concentration of drug is calculated by comparison with that of enzyme in the absence of drug.

[6] = MAO-B Inhibition In vitro IC50, rat brain homogenate
[7] = MAO-A Inhibition In vitro IC50, rat brain homogenate
[8] = rat brain homogenate, read-out: MAO-A Inhibition In vitro IC50
[9] = rat brain homogenate, read-out: MAO-B Inhibition In vitro IC50

T6 sequence (P22303 32-617 isoform P22303-2 limits assumed): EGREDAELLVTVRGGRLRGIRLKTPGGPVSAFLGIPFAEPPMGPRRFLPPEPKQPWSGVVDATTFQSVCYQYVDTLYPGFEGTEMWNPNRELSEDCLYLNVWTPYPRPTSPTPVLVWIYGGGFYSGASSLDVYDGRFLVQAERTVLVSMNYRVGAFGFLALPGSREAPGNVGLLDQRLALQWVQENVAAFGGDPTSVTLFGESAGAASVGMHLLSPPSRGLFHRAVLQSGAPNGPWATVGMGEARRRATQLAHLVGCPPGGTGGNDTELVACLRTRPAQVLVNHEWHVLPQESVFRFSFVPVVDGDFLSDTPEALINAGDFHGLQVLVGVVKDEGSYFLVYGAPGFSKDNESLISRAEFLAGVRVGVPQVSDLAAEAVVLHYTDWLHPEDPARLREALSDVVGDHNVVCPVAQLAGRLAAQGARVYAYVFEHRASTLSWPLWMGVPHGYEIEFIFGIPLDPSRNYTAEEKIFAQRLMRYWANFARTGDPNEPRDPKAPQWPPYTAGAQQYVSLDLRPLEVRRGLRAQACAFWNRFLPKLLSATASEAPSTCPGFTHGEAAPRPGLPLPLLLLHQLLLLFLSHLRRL
Procedure for mice: Therapeutic Ratio was calculated as LD50 divided by ED50 of ex vivo acetylcholine esterase inhibition.

Row | SMILES | IC50 (MAO-B [1]; [6]) [µM] | IC50 (MAO-A [2]; [7]) [µM] | AChE Inhibition Ex vivo ED50 (AC) (whole brain AChE) [µmol/kg] | AChE Inhibition Time to peak activity t (whole brain AChE) [min] | AChE Inhibition Time to return to 50% of peak t (whole brain AChE) [min] | Acute Toxicity LD50 (LD) (mice; mice, within 6 hours after administration) [µmol/kg] | MAO-B Inhibition Ex vivo ED50 (MAO-B [3]) | MAO-A Inhibition Ex vivo ED50 (MAO-A [4]) | IC50 (MAO-A [2]; [8]) [µM] | Acute Toxicity LD50 (LD) (mice; mouse, in vivo) [µmol/kg] | Therapeutic Ratio LD/AC (mice; mouse, in vivo) | IC50 ([5]; AChE Inhibition In vitro IC50) [µM] | IC50 (MAO-B [1]; [9]) [µM] | IC50 ([5]; read-out: AChE Inhibition In vitro IC50) [µM]
1 | CCNC1CCc2ccc(OC(=O)N(C)C)cc21 (centres unmarked) [Compound 7] | > 1000 | 600 | – | – | – | – | – | – | – | – | – | – | – | –
2 | CNC1CCc2ccc(OC(=O)N(C)C)cc21 (centres unmarked) [Compound 8] | – | – | 10.0 | 15 to 30 | >60 | 87 | >>50 μmoles/kg | >>50 μmoles/kg | 50 | – | – | – | – | –
3 | C#CCNC1CCc2ccc(OC(=O)N(C)C)cc21 (centres unmarked) [Compound 23] | 600 | 800 | 22.4 | – | 70 | – | – | – | – | 255 | – | – | – | –
4 | C#CCNC1CCc2ccc(OC(=O)N(C)CCC)cc21 (centres unmarked) [Compound 26] | 264 | 114 | 120 | 30 to 60 | – | – | 333 µmol/kg | >>440 μmoles/kg | – | 1200 | 9 | 17 | – | –
5 | C#CCN(CC)C1CCc2ccc(OC(=O)N(C)C)cc21 (centres unmarked) [Compound 31] | > 1000 | > 1000 | 110 | – | – | – | >100 µmol/kg | >100 µmol/kg | – | – | – | 10 | – | –
6 | C#CCN(C)C1CCc2cccc(OC(=O)N(C)C)c21 (centres unmarked) [Compound 32] | 500 | 190 | 7.8 | 15 | – | – | >>20 μmoles/kg | >>20 μmoles/kg | – | 68 | 9.0 | 3.7 | – | –
7 | C#CCNC1CCc2c(OC(=O)N(C)C)cccc21 (centres unmarked) [Compound 34] | 100 | 0.5 | 0.65 | 30 | – | – | – | – | – | 3.7 | 5.7 | 0.046 | – | –
8 | C#CCNC1CCc2c(OC(=O)N(C)CC)cccc21 (centres unmarked) [Compound 35] | 100 | < 1 | 10 | 60 | – | – | – | – | – | 33 | 3.3 | 2.2 | – | –
9 | C#CCNC1CCc2ccc(OC(=O)N(C)C3CCCCC3)cc21 (centres unmarked) [Compound 38] | – | – | >1000 | – | – | – | >400 µmol/kg | >400 µmol/kg | 170 | – | – | 33 | 10 | –
10 | C#CCNC1CCc2ccc(OC(=O)NCCC)cc21 (centres unmarked) [Compound 57] | – | 89 | 70 | – | – | – | – | – | – | – | – | – | 25 | 2.4
11 | C#CCNC1CCc2ccc(OC(=O)N(C)c3ccc(OC)cc3)cc21 (centres unmarked) [Compound 61] | – | – | 47 | – | – | – | >100 µmol/kg | >100 µmol/kg | 700 | – | – | 0.75 | 500 | –
12 | C#CCNC1CCc2ccc(OC(=O)N(C)c3ccccc3)cc21 (centres unmarked) [Compound 62] | – | – | 290 | 60 | – | – | >>200 μmoles/kg | >>200 μmoles/kg | 80 | – | – | 0.57 | 100 | –
13 | C#CCNC1CCc2ccc(OC(=O)N(C)CCCC)cc21 (centres unmarked) [Compound 81] | – | – | 40 | 90 | >120 | – | >>100 μmoles/kg | >>100 μmoles/kg | – | 920 | 23 | 11.5 | – | –
